From patent US20080305958A1, “Process for Liquid or gas Chromatography/Mass Spectrometry Based Biomolecular Screening for Drug Discovery” (priority 2004, published 2008)

Target: T1, M CPT-I (Homo sapiens, UniProt Q92523)
T1 sequence (Q92523 1-772): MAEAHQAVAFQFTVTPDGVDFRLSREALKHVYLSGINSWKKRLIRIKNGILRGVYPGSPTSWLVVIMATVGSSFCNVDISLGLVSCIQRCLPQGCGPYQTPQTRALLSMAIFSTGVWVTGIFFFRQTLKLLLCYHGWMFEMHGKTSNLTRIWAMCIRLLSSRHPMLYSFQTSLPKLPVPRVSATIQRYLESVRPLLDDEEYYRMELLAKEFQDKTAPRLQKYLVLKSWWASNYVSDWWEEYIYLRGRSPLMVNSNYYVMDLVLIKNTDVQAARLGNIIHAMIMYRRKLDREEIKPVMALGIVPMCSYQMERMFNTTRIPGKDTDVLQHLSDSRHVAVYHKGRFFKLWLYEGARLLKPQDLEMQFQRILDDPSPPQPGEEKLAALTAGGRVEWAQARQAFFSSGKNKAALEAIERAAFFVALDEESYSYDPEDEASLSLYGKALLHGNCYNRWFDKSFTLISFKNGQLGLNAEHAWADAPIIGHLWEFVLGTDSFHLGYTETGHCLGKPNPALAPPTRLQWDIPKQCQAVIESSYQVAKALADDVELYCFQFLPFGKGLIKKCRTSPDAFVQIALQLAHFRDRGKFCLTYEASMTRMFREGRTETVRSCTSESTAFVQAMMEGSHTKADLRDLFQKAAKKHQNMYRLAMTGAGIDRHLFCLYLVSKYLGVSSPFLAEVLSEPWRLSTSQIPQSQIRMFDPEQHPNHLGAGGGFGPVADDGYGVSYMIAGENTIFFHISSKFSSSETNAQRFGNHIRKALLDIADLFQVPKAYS
Test: LC/MS HTS assay, malonyl-CoA inhibition of human MCPT-I (palmitoyl-CoA and carnitine converted to palmitoyl carnitine)
Format: biochemical
Conditions: FIG. 9B
Source text: The biological activity used for the assay is the conversion by CPT-1 of palmitoyl-CoA (fatty acid-CoA) and carnitine to palmitoyl carnitine complex and free CoA.
The biological activity used for the assay is the conversion by CPT-1 of palmitoyl-CoA and carnitine to palmitoyl carnitine complex and free CoA.

- IC50: 41 nM
SMILES: CC(C)(COP(=O)(O)OP(=O)(O)OC[C@H]1O[C@@H](n2cnc3c(N)ncnc32)[C@H](O)[C@@H]1OP(=O)(O)O)[C@@H](O)C(=O)NCCC(=O)NCCSC(=O)CC(=O)O [Malonyl-CoA]
